Test results as given in the NIST ThermoML archive (doi:10.1021/je4007162).
Numbers after ± are expanded uncertainties.

Assay: molar enthalpy of vaporization or sublimation
Conditions: 298.15 K; Liquid; calvet microcalorimetry

SMILES	molar enthalpy [kcal/mol]
C1COCCN1 [tetrahydro-1,4-oxazine]	11.1 ± 0.191
C1CSCCN1 [thiomorpholine]	12.9 ± 0.717
